Biological target: T1, recombinant human estrogen receptor ERα ligand binding domain (Homo sapiens, UniProt P03372)
T1 construct: purchased Invitrogen PV4543
T1 sequence (P03372 311-547 limits assumed): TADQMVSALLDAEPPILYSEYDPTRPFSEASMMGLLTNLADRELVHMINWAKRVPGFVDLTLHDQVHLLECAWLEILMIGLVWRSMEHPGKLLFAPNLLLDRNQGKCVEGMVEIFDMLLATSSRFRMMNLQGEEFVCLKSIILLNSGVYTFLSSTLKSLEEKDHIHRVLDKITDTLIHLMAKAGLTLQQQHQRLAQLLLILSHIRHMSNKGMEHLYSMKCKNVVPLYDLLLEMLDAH
Assay: LanthaScreen TR-FRET competition binding assay with estrogen receptor ERα ligand binding domain
Details: TR-FRET competition with Fluormone ES2, ERα-LBD (GST); read-out: IC50 (nM) ER Reporter
Text: The present invention utilizes the Lantha Screen™ Time-resolved Fluorescence Resonance Energy Transfer (TR-FRET) to assess the ability of the compounds to bind to the isolated ligand domain of estrogen receptor Era in competition assay. The fluorophore (Fluormone ES2, product code P2645) and the recombinant human estrogen receptor ERα ligand binding domain (product code PV4543) using in the TR-FRET were purchased from Invitrogen. The design principle of this assay is as follows: the estrogen receptor ERα-LBD (GST) and the fluorophore-containing ligand form a receptor/fluorophore complex, followed by the addition of terbium (Tb)-labeled anti-GST antibody (product code PV3551), the indirect labeling of the receptor is achieved by the linkage with the GST on the receptor, and the ability of competitive coordination between the test compound and the fluorescent ligand with the receptor is evaluated by detecting the attenuation of the TR-FRET effect between the chromophore (Tb-anti-GST antibody) on the fluorescent label ERα and the fluorescent ligand (Fluormone ES2). We used the following sample preparation and test methods for the test of the synthesized compounds. The instrument we used is Beckman Coulter BioPAPTR FRD microfluidic workstation.
(1) Acoustic dispense 120 nL of the test compound into a black low volume 384 well assay plates;
(2) Preparation of 1×ERα-LBD/Tb-anti-GST antibody complex in ES2 buffer and incubation therein for 20 minutes;
(3) The 1×ES2 was further added to the above ERα-LBD/Tb-anti-GST antibody complex solution before the test;
(4) 12 μL of the ERα-LBD/Tb-anti-GST antibody complex solution prepared in step 3 was added to the wells of the assay plate;
(5) The plates were shielded from light and incubated at room temperature for one hour; (6) At 337 nm excitation light, the emission light at 490 nm and 520 nm was detected by BMG Phera STAR.
The test compounds of a series of concentrations (10 mM, 0.1 mM, 1 μM and 10 nM) prepared on a microplate were transferred to the analytical plate using Labcyte Echo 550. 120 nL of DMSO solution for each test compound was added to each well of the assay plate and tested at 12 different concentrations (100, 29.17, 10.42, 2.083, 1, 0.292, 0.104, 0.02083, 0.01, 0.0029, 0.00104, 0.001 μM). The TR-FRET primitive fluorescence data was used to obtain the fitting curve software such as Origin or Genedata. Half maximal inhibitory concentration IC50 of each compound was used to characterize the competitive binding ability of the test compound with the estrogen receptor ERα. IC50 represents the concentration of the test compound that was calculated when the coordination of the tracer fluorophore (ES2) with the estrogen receptor was reduced by 50%, and the IC50 was determined as shown in Table 3.

| SMILES | IC50 [nM] |
| --- | --- |
| C[C@@H]1Cc2c([nH]c3cccc(F)c23)[C@@H](c2c(F)cc(/C=C/C(=O)O)cc2F)N1CC1(F)CC1 [Example 12, (E)-3-(3,5-difluoro-4-((1R,3R)-5-fluoro-2-((1-fluorocyclopropyl)methyl)-3-methyl-2,3,4,9-tetrahydro-1H-pyrido[3,4-b]indol-1-yl)phenyl)acrylic acid] | 0.1 to 10 |
| C[C@@H]1Cc2c([nH]c3ccccc23)[C@@H](c2c(F)cc(/C=C/C(=O)O)cc2F)N1CC1(F)CC1 [Example 1, (E)-3-(3,5-difluoro-4-((1R,3R)-2-((1-fluorocyclopropyl)methyl)-3-methyl-2,3,4,9-tetrahydro-1H-pyrido[3,4-b]indol-1-yl)phenyl)acrylic acid] | 0.1 to 10 |

From patent US10519148B2, “Acrylic acid derivative, preparation method and use in medicine thereof” (Zhejiang Hisun Pharmaceutical Co., Ltd., priority 2015, dated 2019)
